# Reference: US20070275968A1, “Substituted Biphenyl Derivative” (priority 2004, published 2007)
row,melting point [°C],Compound
1,76 to 79,"Cc1ccc(-c2cccc(-c3nc(C(C)C)[nH]c3-c3cccc(C)n3)c2)cc1 [Example 3, 2-[2-Isopropyl-4-(4′-methyl-1,1′-biphenyl-3-yl)-1H-imidazol-5-yl]-6-methylpyridine]"
2,75 to 77,"COc1ccc(-c2cccc(-c3nc(C(C)C)[nH]c3-c3cccc(C)n3)c2)cc1 [Example 4, 2-[2-Isopropyl-4-(4′-methoxy-1,1′-biphenyl-3-yl)-1H-imidazol-5-yl]-6-methylpyridine]"
3,91 to 93,"Cc1cccc(-c2[nH]c(C(C)C)nc2-c2cccc(-c3ccc(C(F)(F)F)cc3)c2)n1 [Example 5, 2-{2-Isopropyl-4-[4′-(trifluoromethyl)-1,1′-biphenyl-3-yl]-1H-imidazol-5-yl}-6-methylpyridine]"
4,153 to 155,"Cc1cccc(-c2[nH]c(C(C)C)nc2-c2cccc(-c3ccccc3F)c2)n1 [Example 6, 2-[4-(2′-Fluoro-1,1′-biphenyl-3-yl)-2-isopropyl-1H-imidazol-5-yl]-6-methylpyridine]"
5,140 to 142,"Cc1cccc(-c2[nH]c(C(C)C)nc2-c2cccc(-c3cccc(F)c3)c2)n1 [Example 7, 2-[4-(3′-Fluoro-1,1′-biphenyl-3-yl)-2-isopropyl-1H-imidazol-5-yl]-6-methylpyridine]"
6,83 to 85,"Cc1cccc(-c2[nH]c(C(C)C)nc2-c2cccc(-c3ccc(F)cc3)c2)n1 [Example 8, 2-[4-(4′-Fluoro-1,1′-biphenyl-3-yl)-2-isopropyl-1H-imidazol-5-yl]-6-methylpyridine]"
7,70 to 72,"Cc1cccc(-c2[nH]c(C(C)C)nc2-c2cccc(-c3ccc(F)cc3F)c2)n1 [Example 9, 2-[4-(2′,4′-Difluoro-1,1′-biphenyl-3-yl)-2-isopropyl-1H-imidazol-5-yl]-6-methylpyridine]"
8,120 to 122,"Cc1cccc(-c2[nH]c(C(C)C)nc2-c2cccc(-c3ccc(OC(F)(F)F)cc3)c2)n1 [Example 10, 2-{2-Isopropyl-4-[4′-(trifluoromethoxy)-1,1′-biphenyl-3-yl]-1H-imidazol-5-yl}-6-methylpyridine]"
9,74 to 77,"Cc1cccc(-c2[nH]c(C(C)C)nc2-c2cccc(-c3cccnc3)c2)n1 [Example 11, 2-[2-Isopropyl-4-(3-pyridin-3-ylphenyl)-1H-imidazol-5-yl]-6-methylpyridine]"
10,84 to 86,"Cc1cccc(-c2[nH]c(C(C)C)nc2-c2cccc(-c3ccncc3)c2)n1 [Example 12, 2-[2-Isopropyl-4-(3-pyridin-4-ylphenyl)-1H-imidazol-5-yl]-6-methylpyridine]"
11,72 to 74,"COc1ccc(-c2cccc(-c3nc(C(C)C)[nH]c3-c3cccc(C)n3)c2)cn1 [Example 13, 5-{3-[2-Isopropyl-5-(6-methylpyridin-2-yl)-1H-imidazol-4-yl]phenyl}-2-methoxypyridine]"
12,83 to 85,"Cc1cccc(-c2[nH]c(C(C)C)nc2-c2cccc(-c3ccsc3)c2)n1 [Example 14, 2-[2-Isopropyl-4-(3-thien-3-ylphenyl)-1H-imidazol-5-yl]-6-methylpyridine]"
13,128 to 130,"Cc1cccc(-c2[nH]c(C(C)C)nc2-c2cccc(-c3ccc(NS(C)(=O)=O)cc3)c2)n1 [Example 15, N-{3′-[2-Isopropyl-5-(6-methylpyridin-2-yl)-1H-imidazol-4-yl]-1,1′-biphenyl-4-yl}methanesulfonamide]"
14,80 to 82,"CSc1ccc(-c2cccc(-c3nc(C(C)C)[nH]c3-c3cccc(C)n3)c2)cc1 [Example 16, 2-{2-Isopropyl-4-[4′-(methylthio)-1,1′-biphenyl-3-yl]-1H-imidazol-5-yl}-6-methylpyridine]"
15,97 to 100,"Cc1cccc(-c2[nH]c(C(C)C)nc2-c2cccc(-c3cccc(S(C)(=O)=O)c3)c2)n1 [Example 18, 2-{2-Isopropyl-4-[3′-(methylsulfonyl)-1,1′-biphenyl-3-yl]-1H-imidazol-5-yl}-6-methylpyridine]"
